Calls of active or inactive are those of the source. The rule behind the calls is not given here.
Assays:
Murine hepatitis virus = experiment: microbe, parasite or virus in culture; conditions: Murine coronavirus, Astrocytoma delayed brain tumor (DBT) cell
Description: Antiviral activity against MHV-nLuc infected in DBT cells assessed as effect on cell viability by LDH assay

[1] = molecular target: T1, 1-phosphatidylinositol 3-phosphate 5-kinase (Homo sapiens, UniProt Q9Y2I7); experiment: Inhibition of human GST tagged PIKFYVE (1493 to end residues) expressed in baculovirus-infected Sf9 cells using PI(3)P:PS as substrate incubated for 60 mins in presence of ATP by ADP-Glo assay
[2] = molecular target: T1, 1-phosphatidylinositol 3-phosphate 5-kinase; experiment: Inhibition of PIKFYVE in HEK293 cells by NanoBRET assay; format: cell-based
[3] = molecular target: Microtubule-associated serine/threonine-protein kinase 1 (Homo sapiens) (UniProt Q9Y2H9); experiment: Inhibition of wild-type human partial length MAST1 (S346 to V730 residues) expressed in mammalian expression system assessed as residual activity at 1 uM by Kinomescan method relative to control
SARS-CoV-2 = experiment: microbe, parasite or virus in culture; conditions: Severe acute respiratory syndrome coronavirus 2, A549-ACE2
Description: Antiviral activity against SARS-CoV-2 infected in human A549-ACE2 cells assessed as effect on cell viability pretreated with compound for 1 hr followed by viral infection measured after 2 hrs by Nano-Glo reagent based LDH assay

[4] = molecular target: Phosphatidylinositol 5-phosphate 4-kinase type-2 gamma (Homo sapiens) (UniProt Q8TBX8); experiment: Inhibition of human wild type full length PIP5K2C (M1 to A421 residues) expressed in mammalian expression system assessed as remaining activity at 1 uM by Kinomescan assay relative to control
[5] = molecular target: Serine/threonine-protein kinase PAK 5 (Homo sapiens) (UniProt Q9P286); experiment: Inhibition of human wild type PAK7 expressed in Escherichia coli assessed as remaining activity using RRRLSFAEPG peptide substrate at 1 uM by MRC screening assay relative to control
[6] = molecular target: Tyrosine-protein kinase JAK2 (Homo sapiens) (UniProt O60674); experiment: Inhibition of human wild type JAK2 (JH1) domain assessed as remaining activity at 1 uM by MRC screening assay relative to control
[7] = molecular target: Mitogen-activated protein kinase kinase kinase kinase 2 (Homo sapiens) (UniProt Q12851); experiment: Inhibition of human wild type partial length MAP4K2 (M1 to G318 residues) expressed in mammalian expression system assessed as remaining activity at 1 uM by Kinomescan assay relative to control
[8] = molecular target: Serine/threonine-protein kinase TAO3 (Homo sapiens) (UniProt Q9H2K8); experiment: Inhibition of human wild type partial length TAOK3 (M1 to T316 residues) expressed in mammalian expression system assessed as remaining activity at 1 uM by Kinomescan assay relative to control
[9] = molecular target: Serine/threonine-protein kinase TAO1 (Homo sapiens) (UniProt Q7L7X3); experiment: Inhibition of human wild type TAOK1 assessed as remaining activity at 1 uM by MRC screening assay relative to control
[10] = molecular target: Phosphatidylinositol 4-phosphate 5-kinase type-1 gamma (Homo sapiens) (UniProt O60331); experiment: Inhibition of human wild type full length PIP5K1C (M1 to T668 residues) expressed in mammalian expression system assessed as remaining activity at 1 uM by Kinomescan assay relative to control
[11] = molecular target: Serine/threonine-protein kinase TAO2 (Homo sapiens) (UniProt Q9UL54); experiment: Inhibition of human wild type partial length TAOK2 (M1 to A320 residues) expressed in mammalian expression system assessed as remaining activity at 1 uM by Kinomescan assay relative to control
[12] = molecular target: Mitogen-activated protein kinase kinase kinase 19 (Homo sapiens) (UniProt Q56UN5); experiment: Inhibition of wild-type human partial length YSK4 (T1019 to H1328 residues) expressed in mammalian expression system assessed as residual binding level at 1 uM by Kinomescan method relative to control
[13] = molecular target: Dual specificity mitogen-activated protein kinase kinase 4 (Homo sapiens) (UniProt P45985); experiment: Inhibition of human wild type partial length MEK4 (S84 to D399 residues) expressed in mammalian expression system assessed as remaining activity at 1 uM by Kinomescan assay relative to control
[14] = molecular target: Citron Rho-interacting kinase (Homo sapiens) (UniProt O14578); experiment: Inhibition of wild-type human partial length CIT (M68 to E432 residues) expressed in bacterial expression system assessed as residual binding level at 1 uM by Kinomescan method relative to control
[15] = molecular target: Mitogen-activated protein kinase kinase kinase kinase 5 (Homo sapiens) (UniProt Q9Y4K4); experiment: Inhibition of human wild type MAP4K5 assessed as remaining activity at 1 uM by MRC screening assay relative to control
[16] = molecular target: cAMP-dependent protein kinase catalytic subunit PRKX (Homo sapiens) (UniProt P51817); experiment: Inhibition of human wild type partial length PRKX (M1 to F358 residues) expressed in bacterial expression system assessed as remaining activity at 1 uM by Kinomescan assay relative to control
[17] = molecular target: Mitogen-activated protein kinase kinase kinase 3 (Homo sapiens) (UniProt Q99759); experiment: Inhibition of human wild type partial length MAP3K3 (E320 to Y626 residues) expressed in mammalian expression system assessed as remaining activity at 1 uM by Kinomescan assay relative to control
[18] = molecular target: Serine/threonine-protein kinase PAK 6 (Homo sapiens) (UniProt Q9NQU5); experiment: Inhibition of human wild type PAK6 assessed as remaining activity at 1 uM by MRC screening assay relative to control
[19] = molecular target: Mitogen-activated protein kinase kinase kinase 2 (Homo sapiens) (UniProt Q9Y2U5); experiment: Inhibition of wild-type human partial length MAP3K2 (S315 to H619 residues) expressed in mammalian expression system assessed as residual binding level at 1 uM by Kinomescan method relative to control
[20] = molecular target: Myosin light chain kinase family member 4 (Homo sapiens) (UniProt Q86YV6); experiment: Inhibition of human wild type […] length MYLK4 (V79 to S380 residues) expressed in bacterial expression system assessed as remaining activity at 1 uM by Kinomescan assay relative to control
[21] = molecular target: Dual serine/threonine and tyrosine protein kinase (Homo sapiens) (UniProt Q6XUX3); experiment: Inhibition of human wild type full length RIPK5 (M1 to T929 residues) expressed in mammalian expression system assessed as remaining activity at 1 uM by Kinomescan assay relative to control
[22] = molecular target: Serine/threonine-protein kinase PAK 4 (Homo sapiens) (UniProt O96013); experiment: Inhibition of human wild type PAK4 assessed as remaining activity at 1 uM by MRC screening assay relative to control
Calu-3 [23] = experiment: (§1) Inhibition of His-6 tagged SARS-CoV-2 spike protein uptake in human Calu-3 cells at 1 uM incubated for 1 hr by fluorescence based analysis relative control; format: functional
SH-SY5Y = experiment: Induction of lysosome dysfunction in human SH-SY5Y cells at 5 uM incubated for 24 hrs by lyso-tracker red DND-99 based confocal microscopic method; format: functional, cell-based
Caco-2 = experiment: (§2) Inhibition of His-6 tagged SARS-CoV-2 spike protein uptake in human Caco-2 cells at 1 uM incubated for 1 hr by fluorescence based analysis relative control; format: functional
Calu-3 [24] = experiment: Inhibition of lentivirus pseudotyped with SARS-CoV-2 spike glycoprotein uptake in human Calu-3 cells at 1 uM preincubated for 1 hr prior to viral infection for 12 hrs by fluorescence based analysis; format: functional, cell-based
[25] = as §1; format: functional
[26] = as §2; format: functional
[27] = Microsomal stability in CD-1 mouse liver microsomal assessed as parent compound remaining preincubated for 5 mins followed by NADPH addition measured after 30 mins by LC-TOFMS; format: ADME, subcellular; conditions: liver microsomes, time 35 min, read-out: Stability

T1 sequence (Q9Y2I7 whole entry): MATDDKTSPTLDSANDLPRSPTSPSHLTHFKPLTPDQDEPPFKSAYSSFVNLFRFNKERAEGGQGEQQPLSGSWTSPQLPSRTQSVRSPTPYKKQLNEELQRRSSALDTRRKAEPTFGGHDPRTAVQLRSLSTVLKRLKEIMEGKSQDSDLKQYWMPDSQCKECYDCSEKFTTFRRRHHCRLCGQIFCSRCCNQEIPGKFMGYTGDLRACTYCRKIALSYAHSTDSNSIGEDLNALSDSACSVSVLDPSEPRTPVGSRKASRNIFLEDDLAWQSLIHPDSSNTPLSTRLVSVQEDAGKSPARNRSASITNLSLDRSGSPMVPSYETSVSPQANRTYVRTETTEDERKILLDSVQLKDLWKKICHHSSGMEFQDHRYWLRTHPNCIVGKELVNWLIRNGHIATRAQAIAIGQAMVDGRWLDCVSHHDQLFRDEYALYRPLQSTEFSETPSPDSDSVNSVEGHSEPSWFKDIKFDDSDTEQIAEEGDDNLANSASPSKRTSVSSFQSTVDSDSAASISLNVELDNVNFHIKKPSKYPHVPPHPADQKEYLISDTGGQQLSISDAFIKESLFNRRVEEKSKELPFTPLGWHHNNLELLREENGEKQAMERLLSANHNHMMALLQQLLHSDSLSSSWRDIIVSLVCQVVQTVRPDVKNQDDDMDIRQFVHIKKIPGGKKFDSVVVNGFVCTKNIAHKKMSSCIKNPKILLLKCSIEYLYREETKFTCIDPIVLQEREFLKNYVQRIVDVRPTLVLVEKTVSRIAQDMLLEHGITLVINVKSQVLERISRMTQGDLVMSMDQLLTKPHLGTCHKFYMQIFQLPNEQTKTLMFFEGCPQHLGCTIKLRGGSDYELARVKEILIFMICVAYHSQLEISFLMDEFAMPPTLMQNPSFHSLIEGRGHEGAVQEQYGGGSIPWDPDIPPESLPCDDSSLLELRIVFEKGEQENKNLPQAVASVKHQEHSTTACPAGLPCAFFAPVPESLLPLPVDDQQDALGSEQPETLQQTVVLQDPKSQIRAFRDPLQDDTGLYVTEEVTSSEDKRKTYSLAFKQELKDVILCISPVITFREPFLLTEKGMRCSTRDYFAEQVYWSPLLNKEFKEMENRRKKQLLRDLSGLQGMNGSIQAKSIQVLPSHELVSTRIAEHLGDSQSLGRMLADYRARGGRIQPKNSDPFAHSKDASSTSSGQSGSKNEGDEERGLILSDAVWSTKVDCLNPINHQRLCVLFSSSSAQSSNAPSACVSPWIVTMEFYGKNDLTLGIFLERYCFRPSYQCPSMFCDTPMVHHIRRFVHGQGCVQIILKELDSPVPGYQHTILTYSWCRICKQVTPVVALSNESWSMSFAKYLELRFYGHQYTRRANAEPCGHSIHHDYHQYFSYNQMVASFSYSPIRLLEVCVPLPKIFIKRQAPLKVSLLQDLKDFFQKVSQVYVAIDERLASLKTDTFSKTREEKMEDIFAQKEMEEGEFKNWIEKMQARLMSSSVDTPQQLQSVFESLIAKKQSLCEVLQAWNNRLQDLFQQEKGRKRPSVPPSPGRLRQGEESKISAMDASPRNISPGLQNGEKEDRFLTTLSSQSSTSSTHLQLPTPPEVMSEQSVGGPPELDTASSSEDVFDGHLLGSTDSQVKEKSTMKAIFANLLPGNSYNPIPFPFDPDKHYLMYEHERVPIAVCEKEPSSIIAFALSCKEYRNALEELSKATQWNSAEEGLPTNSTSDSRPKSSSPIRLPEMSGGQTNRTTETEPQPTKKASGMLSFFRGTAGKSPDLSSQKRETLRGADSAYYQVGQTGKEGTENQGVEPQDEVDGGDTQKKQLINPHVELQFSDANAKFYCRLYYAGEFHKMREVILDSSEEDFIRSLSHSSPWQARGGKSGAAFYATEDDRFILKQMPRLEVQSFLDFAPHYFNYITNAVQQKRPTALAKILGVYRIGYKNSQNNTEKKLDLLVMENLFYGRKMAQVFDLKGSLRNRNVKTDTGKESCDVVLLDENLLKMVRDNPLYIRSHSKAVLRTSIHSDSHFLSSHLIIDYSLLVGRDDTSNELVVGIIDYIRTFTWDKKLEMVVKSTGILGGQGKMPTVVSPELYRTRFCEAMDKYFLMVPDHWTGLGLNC
Chain of Myosin light chain kinase family member 4 (Homo sapiens) (Q86YV6 whole entry, the tested form may be a part): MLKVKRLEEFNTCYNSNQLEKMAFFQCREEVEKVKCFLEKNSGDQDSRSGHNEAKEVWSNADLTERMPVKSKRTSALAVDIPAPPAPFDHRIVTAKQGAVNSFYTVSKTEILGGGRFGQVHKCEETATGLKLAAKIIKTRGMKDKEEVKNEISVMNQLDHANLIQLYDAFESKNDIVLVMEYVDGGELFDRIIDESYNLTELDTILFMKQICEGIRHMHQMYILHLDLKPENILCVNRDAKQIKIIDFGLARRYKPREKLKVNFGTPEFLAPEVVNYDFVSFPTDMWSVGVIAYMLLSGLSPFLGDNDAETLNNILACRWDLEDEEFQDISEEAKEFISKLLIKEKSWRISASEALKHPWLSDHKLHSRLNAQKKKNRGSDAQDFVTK
Chain of Serine/threonine-protein kinase TAO2 (Homo sapiens) (Q9UL54 whole entry, the tested form may be a part): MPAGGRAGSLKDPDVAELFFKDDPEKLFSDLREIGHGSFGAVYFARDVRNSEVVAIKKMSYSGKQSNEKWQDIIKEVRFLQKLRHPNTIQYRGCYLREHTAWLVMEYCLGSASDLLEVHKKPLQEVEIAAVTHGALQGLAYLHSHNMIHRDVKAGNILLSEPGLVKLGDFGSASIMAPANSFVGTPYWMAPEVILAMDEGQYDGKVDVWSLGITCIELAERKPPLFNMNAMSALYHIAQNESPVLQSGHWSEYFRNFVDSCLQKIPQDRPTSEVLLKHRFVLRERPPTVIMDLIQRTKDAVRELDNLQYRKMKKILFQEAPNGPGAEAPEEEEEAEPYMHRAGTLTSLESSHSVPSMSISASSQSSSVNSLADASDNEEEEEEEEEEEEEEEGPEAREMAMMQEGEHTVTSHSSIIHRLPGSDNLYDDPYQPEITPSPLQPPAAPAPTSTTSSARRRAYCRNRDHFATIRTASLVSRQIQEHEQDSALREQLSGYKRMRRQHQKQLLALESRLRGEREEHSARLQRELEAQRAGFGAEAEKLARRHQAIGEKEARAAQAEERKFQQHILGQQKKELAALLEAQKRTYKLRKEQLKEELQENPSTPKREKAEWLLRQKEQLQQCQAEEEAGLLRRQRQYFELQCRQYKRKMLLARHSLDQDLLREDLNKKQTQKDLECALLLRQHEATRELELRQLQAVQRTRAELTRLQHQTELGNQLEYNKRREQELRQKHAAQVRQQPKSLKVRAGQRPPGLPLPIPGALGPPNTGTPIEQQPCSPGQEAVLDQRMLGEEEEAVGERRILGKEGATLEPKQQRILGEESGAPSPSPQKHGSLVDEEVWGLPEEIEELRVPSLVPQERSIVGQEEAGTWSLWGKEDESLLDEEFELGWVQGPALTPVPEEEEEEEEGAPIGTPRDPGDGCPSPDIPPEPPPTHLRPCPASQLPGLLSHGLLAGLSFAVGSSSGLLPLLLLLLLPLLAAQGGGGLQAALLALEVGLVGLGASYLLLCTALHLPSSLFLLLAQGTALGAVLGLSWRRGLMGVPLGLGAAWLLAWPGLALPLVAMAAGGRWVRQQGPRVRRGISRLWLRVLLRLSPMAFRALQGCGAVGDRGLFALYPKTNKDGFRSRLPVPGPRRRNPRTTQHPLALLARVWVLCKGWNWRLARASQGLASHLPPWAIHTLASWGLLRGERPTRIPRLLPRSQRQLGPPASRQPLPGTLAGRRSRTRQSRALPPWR
Chain of Phosphatidylinositol 4-phosphate 5-kinase type-1 gamma (Homo sapiens) (O60331 whole entry, the tested form may be a part): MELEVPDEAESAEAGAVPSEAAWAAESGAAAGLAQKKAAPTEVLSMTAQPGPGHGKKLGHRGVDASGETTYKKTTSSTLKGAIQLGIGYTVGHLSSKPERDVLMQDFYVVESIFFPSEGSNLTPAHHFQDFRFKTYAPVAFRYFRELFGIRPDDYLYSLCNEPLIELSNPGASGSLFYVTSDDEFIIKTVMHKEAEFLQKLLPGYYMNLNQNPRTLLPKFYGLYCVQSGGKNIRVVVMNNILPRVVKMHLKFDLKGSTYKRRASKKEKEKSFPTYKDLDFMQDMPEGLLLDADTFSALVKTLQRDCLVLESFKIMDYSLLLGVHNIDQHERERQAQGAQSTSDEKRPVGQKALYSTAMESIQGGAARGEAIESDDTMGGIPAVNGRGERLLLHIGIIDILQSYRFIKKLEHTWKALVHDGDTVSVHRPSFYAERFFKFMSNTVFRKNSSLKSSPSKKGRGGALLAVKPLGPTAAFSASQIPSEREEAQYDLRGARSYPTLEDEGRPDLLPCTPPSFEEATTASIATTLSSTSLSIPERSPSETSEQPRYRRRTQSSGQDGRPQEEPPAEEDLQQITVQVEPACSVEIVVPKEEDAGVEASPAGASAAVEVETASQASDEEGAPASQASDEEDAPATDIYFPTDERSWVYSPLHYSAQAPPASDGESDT
Chain of cAMP-dependent protein kinase catalytic subunit PRKX (Homo sapiens) (P51817 whole entry, the tested form may be a part): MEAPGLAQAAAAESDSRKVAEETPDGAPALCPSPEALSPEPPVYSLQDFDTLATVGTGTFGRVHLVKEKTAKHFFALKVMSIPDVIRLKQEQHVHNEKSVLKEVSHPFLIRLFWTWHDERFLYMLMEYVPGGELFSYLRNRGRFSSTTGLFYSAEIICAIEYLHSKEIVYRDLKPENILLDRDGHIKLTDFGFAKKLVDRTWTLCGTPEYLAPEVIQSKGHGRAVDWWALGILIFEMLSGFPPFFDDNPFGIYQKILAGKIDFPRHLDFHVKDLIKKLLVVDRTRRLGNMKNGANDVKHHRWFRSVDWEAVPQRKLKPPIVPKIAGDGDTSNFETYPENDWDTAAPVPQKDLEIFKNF

| Structure (SMILES) | IC50 (Murine hepatitis virus) | IC50 (Murine hepatitis virus; read-out: pIC50 (converted)) | IC50 [1] | IC50 [2] | further results |
| --- | --- | --- | --- | --- | --- |
| Cn1cncc1C#Cc1ccc2[nH]c3c(c2c1)-c1nc(N)ncc1CC3 | 8050 nM | 8130 nM | 77 nM | > 10000 nM |  |
| Nc1ncc2c(n1)-c1c([nH]c3ccc(C#Cc4ccncc4)cc13)CCC2 | 485 nM | 490 nM | 22 nM | 885 nM |  |
| Nc1ncc2c(n1)-c1c([nH]c3ccc(-c4ccc(F)cc4)cc13)CC2 | 713 nM | 708 nM | 8.2 nM | 380 nM |  |
| CC(C)C(O)C#Cc1ccc2[nH]c3c(c2c1)-c1nc(N)ncc1CC3 (stereo not given) | 1920 nM | 1910 nM |  | 1170 nM |  |
| Cn1cc(-c2ccc3[nH]c4c(c3c2)-c2nc(N)ncc2CCC4)cn1 | 666 nM | 661 nM | 26 nM | 1560 nM |  |
| Nc1ncc2c(n1)-c1c([nH]c3ccc(C#Cc4ccncc4)cc13)CCCC2 |  |  | 580 nM | 5290 nM |  |
| CC(C)(O)C#Cc1ccc2[nH]c3c(c2c1)-c1nc(N)ncc1CCCC3 | 8470 nM | 8510 nM | 61 nM | 2450 nM |  |
| Cc1cccc(/C=N/Nc2cc(N3CCOCC3)n3nc(-c4ccncc4)cc3n2)c1 | 40.4 nM | 40.7 nM |  |  |  |
| Nc1ncc2c(n1)-c1c([nH]c3ccc(C4CC4)cc13)CCCC2 | > 10000 nM | > 10000 nM |  |  | Activity [3]: 32%; IC50 (SARS-CoV-2): > 10000 nM |
| CC(C)(O)C#Cc1ccc2[nH]c3c(c2c1)-c1nc(N)ncc1CCC3 |  |  |  |  | Activity [4]: < 10%; Activity [5]: < 10%; Activity [6]: < 10%; Activity [7]: < 10%; Activity [8]: < 10%; Activity [9]: < 10%; Activity [10]: < 10%; Activity [11]: < 10%; Activity [12]: < 10%; Activity [13]: < 10%; Activity [14]: < 10%; Activity [15]: < 10%; Activity [16]: < 10%; Activity [17]: < 10%; Activity [18]: < 10%; Activity [19]: < 10%; Activity [20]: < 10%; Activity [21]: < 10%; Activity [22]: < 10% |
| CN(C)CC#Cc1ccc2[nH]c3c(c2c1)-c1nc(N)ncc1CC3 |  |  |  | 123 nM |  |
| Cn1cc(-c2ccc3[nH]c4c(c3c2)-c2nc(N)ncc2CC4)cn1 | 5350 nM | 5370 nM | 34 nM | 4970 nM |  |
| Cc1cccc(/C=N/Nc2cc(N3CCOCC3)nc(OCCc3ccccn3)n2)c1 |  |  |  |  | inhibition (Calu-3 [23]): Active; Activity (SH-SY5Y): Active; inhibition (Caco-2): Active; inhibition (Calu-3 [24]): Active |
| CCC(CC)COC(=O)[C@H](C)N[P@](=O)(OC[C@H]1O[C@@](C#N)(c2ccc3c(N)ncnn23)[C@H](O)[C@@H]1O)Oc1ccccc1 |  |  |  |  | IC50 (SARS-CoV-2): 86.4 nM |
| Nc1ncc2c(n1)-c1c([nH]c3ccc(C#CC4CC4)cc13)CC2 |  |  |  | 300 nM |  |
| CC(C)(O)C#Cc1ccc2[nH]c3c(c2c1)-c1nc(N)ncc1CC3 |  |  |  | 220 nM |  |
| Nc1ncc2c(n1)-c1c([nH]c3ccc(C#CC4CC4)cc13)CCCC2 | 1800 nM | 1780 nM | 75 nM | 700 nM |  |
| CN(C)CC#Cc1ccc2[nH]c3c(c2c1)-c1nc(N)ncc1CCCC3 |  |  | 430 nM | 683 nM |  |
| CN(C)CC#Cc1ccc2[nH]c3c(c2c1)-c1nc(N)ncc1CCC3 |  |  |  |  | inhibition at 1 µM [25]: > 75%; Activity (SH-SY5Y): Active; inhibition at 1 µM [26]: > 91%; inhibition (Calu-3 [24]): Active; remaining at 0.5 h [27]: 12.6% |
| Nc1ncc2c(n1)-c1c([nH]c3ccc(C#Cc4ccncc4)cc13)CC2 |  |  |  | 2980 nM |  |
| Cn1cncc1C#Cc1ccc2[nH]c3c(c2c1)-c1nc(N)ncc1CCCC3 |  |  | 290 nM | > 10000 nM |  |
| Nc1ncc2c(n1)-c1c([nH]c3ccc(-c4ccc(F)cc4)cc13)CCC2 | 71 nM | 70.8 nM | 9.3 nM | 11.4 nM | Activity (SH-SY5Y): Active; inhibition (Calu-3 [24]): Active; IC50 (SARS-CoV-2): 73.3 nM |
| Nc1ncc2c(n1)-c1c([nH]c3ccc(-c4ccc(F)cc4)cc13)CCCC2 |  |  |  | 2560 nM |  |
| CC(C)C(O)C#Cc1ccc2[nH]c3c(c2c1)-c1nc(N)ncc1CCC3 (stereo not given) |  |  |  | 45.7 nM |  |

Reference: ChEMBL document CHEMBL5108045, “Identification and Utilization of a Chemical Probe to Interrogate the Roles of PIKfyve in the Lifecycle of β-Coronaviruses” (J Med Chem, 2022)
